Measured values reported in patent US20140051576A1, “ACTIVE COMPOUND COMBINATIONS COMPRISING A (THIO)CARBOXAMIDE DERIVATIVE AND AN INSECTICIDAL OR ACARICIDAL OR NEMATICIDAL ACTIVE COMPOUND” (priority 2011, published 2014).
Like-named read-outs stand apart in the source and are kept apart here.

Tests used:
[1] = system: Myzus persicae; assay: Myzus persicae - Test (MYZUPE spray application); type: in vivo; details: for mortality at 100 g/ha / mortality at 500 g/ha / mortality at 200 g/ha / mortality at 4 g/ha / mortality at 0.8 g/ha: Myzus persicae
From the text: Myzus persicae—Test; (MYZUPE Spray Application)
Chinese cabbage (Brassica pekinesis) leaf—disks infected with all instars of the green peach aphid (Myzus persicae), are sprayed with a preparation of the active ingredient at the desired concentration.
100% means that all aphids have been killed; 0% means that none of the aphids have been killed.

[2] = system: Phaedon cochleariae; assay: Phaedon cochleariae Larvae - Test (PHAECO spray application); type: in vivo
From the text: Phaedon cochleariae—Test; (PHAECO Spray Application)
Solvent: 78 parts by weight of acetone • 1.5 parts by weight of N,N-dimethylformamide Emulsifier: 0.5 parts by weight of alkylarylpolyglycolether
Once dry, the leaf discs are infested with mustard beetle larvae (Phaedon cochleariae).

[3] = system: Spodoptera frugiperda; assay: whole plant or invertebrate
Description: Spodoptera frugiperda—Test (SPODFR Spray Application)
Solvent: 78.0 parts by weight acetone • 1.5 parts by weight N,N-dimethylformamide Emulsifier: 0.5 parts by weight alkylarylpolyglycolether
Maize (Zea mais) leaf sections are sprayed with a preparation of the active ingredient of the desired concentration. Once dry, the leaf sections are infested with larvae of the fall armyworm (Spodoptera frugiperda).
After the specified period of time, the mortality in % is determined. 100% means that all caterpillars have been killed and 0% means that none of the caterpillars have been killed.

[4] = system: Tetranychus urticae; assay: Tetranychus urticae - Test; OP-resistant (TETRUR spray application); type: in vivo
From the text: Tetranychus urticae—Test; OP-Resistant (TETRUR Spray Application)
French beans (Phaseolus vulgaris) which are heavily infested with all stages of the two spotted spidermite (Tetranychus urticae), are sprayed with a preparation of the active ingredient at the desired concentration.

[5] = 24 h, read-out: Mortality in % after 1 day obs.
[6] = 144 h, read-out: Mortality in % after 6 days obs.
[7] = Phaedon cochleariae, 48 h, read-out: Mortality in % after 2 days obs.
[8] = Phaedon cochleariae, 144 h, read-out: Mortality in % after 6 days obs.
[9] = Spodoptera frugiperda, 48 h, read-out: Mortality in % after 2 days obs.
[10] = Spodoptera frugiperda, 144 h, read-out: Mortality in % after 6 days obs.
[11] = Tetranychus urticae, 48 h, read-out: Mortality in % after 2 days obs.
[12] = Tetranychus urticae, 144 h, read-out: Mortality in % after 6 days obs.
[13] = 100 g/ha, single active ingredient, 6 days
[14] = 4 g/ha, single active ingredient, 6 days
[15] = 0.8 g/ha, single active ingredient, 6 days

Molecule: CC(C)c1ccccc1CN(C(=O)c1c(C(F)F)nn(C)c1F)C1CC1 [A-1, N-cyclopropyl-3-(difluoromethyl)-5-fluoro-N-(2-isopropylbenzyl)-1-methyl-1H-pyrazole-4-carboxamide]
- mortality at 100 g/ha [1, 5]: 0%
- mortality at 100 g/ha [1, 6]: 0%
- mortality at 100 g/ha [2, 7]: 0%
- mortality at 100 g/ha [2, 8]: 0%
- mortality at 100 g/ha [3, 9]: 0%
- mortality at 100 g/ha [3, 10]: 0%
- mortality at 100 g/ha [4, 11]: 0%
- mortality at 100 g/ha [4, 12]: 0%

Molecule: Cn1nc(C(F)F)c(C(=O)N(Cc2cc(Cl)ccc2C(F)(F)F)C2CC2)c1F [A-15, N-[5-chloro-2-(trifluoromethyl)benzyl]-N-cyclopropyl-3-(difluoromethyl)-5-fluoro-1-methyl-1H-pyrazole-4-carboxamide]
- mortality at 500 g/ha [1, 5]: 0%
- mortality at 500 g/ha [1, 6]: 0%
- mortality at 500 g/ha [2, 7]: 0%
- mortality at 500 g/ha [2, 8]: 0%
- mortality at 500 g/ha [3, 10]: 0%
- mortality at 500 g/ha [4, 11]: 0%
- mortality at 500 g/ha [4, 12]: 0%

Molecule: Flubendiamide [B-26.3]
- Mortality in % after 6 days obs. ([2]; 4 g/ha): 0%
- Mortality in % after 6 days obs. ([2]; 20 g/ha): 50%
- Mortality in % after 2 days obs. ([3]; 100 g/ha): 67%
- Mortality in % after 6 days obs. [4, 13]: 0%

Molecule: CC(C)c1ccc(Cl)cc1CN(C(=O)c1c(C(F)F)nn(C)c1F)C1CC1 [A-5, N-(5-chloro-2-isopropylbenzyl)-N-cyclopropyl-3-(difluoromethyl)-5-fluoro-1-methyl-1H-pyrazole-4-carboxamide]
- mortality at 100 g/ha ([1]; 24 h, 100 g/ha, read-out: Mortality in % after 1 day obs.): 0%
- mortality at 200 g/ha [1, 5]: 0%
- mortality at 100 g/ha ([1]; 144 h, 100 g/ha, read-out: Mortality in % after 6 days obs.): 0%
- mortality at 200 g/ha [1, 6]: 0%
- mortality at 100 g/ha ([2]; Phaedon cochleariae, 48 h, 100 g/ha, read-out: Mortality in % after 2 days obs.): 0%
- mortality at 150 g/ha ([2]; Phaedon cochleariae, 48 h, 150 g/ha, read-out: Mortality in % after 2 days obs.): 0%
- mortality at 100 g/ha ([2]; Phaedon cochleariae, 144 h, 100 g/ha, read-out: Mortality in % after 6 days obs.): 0%
- mortality at 200 g/ha ([2]; Phaedon cochleariae, 144 h, 200 g/ha, read-out: Mortality in % after 6 days obs.): 0%
- mortality at 100 g/ha [3, 9]: 0%
- mortality at 200 g/ha [3, 9]: 0%
- mortality at 100 g/ha [3, 10]: 0%
- mortality at 200 g/ha [3, 10]: 0%
- mortality at 200 g/ha ([4]; Tetranychus urticae, 144 h, 200 g/ha, single active ingredient, 6 days, read-out: Mortality in % after 6 days obs.): 0%

Molecule: N#CCNC(=O)c1cnccc1C(F)(F)F [B-9.2, Flonicamid]
- Mortality in % after 1 day obs. ([1]; 20 g/ha): 0%
- Mortality in % after 6 days obs. ([1]; 20 g/ha): 80%
- Mortality in % after 6 days obs. ([2]; 20 g/ha): 0%
- Mortality in % after 6 days obs. [4, 13]: 0%

Molecule: CN1COCN(Cc2cnc(Cl)s2)/C1=N\[N+](=O)[O-] [B-4A.7, Thiamethoxam]
- mortality at 4 g/ha [1, 5]: 0%
- mortality at 0.8 g/ha [1, 6]: 70%
- mortality at 0.8 g/ha [2, 8]: 0%
- mortality at 20 g/ha [4, 11]: 0%
- mortality at 4 g/ha [4, 12]: 0%

Molecule: Thiacloprid [B-4A.6]
- Mortality in % after 6 days obs. ([1]; 0.16 g/ha): 0%
- Mortality in % after 1 day obs. ([1]; 0.8 g/ha): 70%
- Mortality in % after 6 days obs. ([1]; 4 g/ha): 0%
- Mortality in % after 6 days obs. ([2]; 20 g/ha): 83%
- Mortality in % after 2 days obs. ([2]; 100 g/ha): 0%
- Mortality in % after 6 days obs. [4, 14]: 0%
- Mortality in % after 2 days obs. ([4]; 100 g/ha): 0%

Molecule: CC1(C)[C@H](/C=C(\Cl)C(F)(F)F)[C@@H]1C(=O)O[C@@H](C#N)c1cccc(Oc2ccccc2)c1 [B-3A.12, L-Cyhalothrin]
- Mortality in % after 2 days obs. ([2]; 0.8 g/ha): 67%
- Mortality in % after 6 days obs. ([3]; 0.8 g/ha): 83%
- Mortality in % after 2 days obs. ([4]; 0.16 g/ha): 0%
- Mortality in % after 2 days obs. ([4]; 0.8 g/ha): 70%
- Mortality in % after 6 days obs. [4, 15]: 70%

Molecule: Imidacloprid [B-4A.4]
- Mortality in % after 1 day obs. ([1]; 0.8 g/ha): 0%
- Mortality in % after 1 day obs. ([1]; 4 g/ha): 70%
- Mortality in % after 1 day obs. ([1]; 20 g/ha): 80%
- Mortality in % after 6 days obs. ([2]; 100 g/ha): 67%
- Mortality in % after 6 days obs. [4, 14]: 0%

Molecule: CNC(=O)O/N=C/C(C)(C)SC [B-1A.2, Aldicarb]
- Mortality in % after 6 days obs. ([1]; 20 g/ha): 80%
- Mortality in % after 1 day obs. ([1]; 100 g/ha): 0%
- Mortality in % after 6 days obs. ([2]; 100 g/ha): 0%
- Mortality in % after 2 days obs. ([3]; 100 g/ha): 0%
- Mortality in % after 6 days obs. ([3]; 100 g/ha): 33%

Molecule: Spinosad [B-5.2]
- Mortality in % after 6 days obs. ([2]; 0.8 g/ha): 0%
- Mortality in % after 6 days obs. ([2]; 4 g/ha): 0%
- Mortality in % after 2 days obs. ([2]; 20 g/ha): 50%
- Mortality in % after 2 days obs. ([3]; 0.16 g/ha): 0%
- Mortality in % after 2 days obs. ([4]; 0.8 g/ha): 0%
- Mortality in % after 6 days obs. [4, 15]: 0%
- Mortality in % after 2 days obs. ([4]; 4 g/ha): 0%
- Mortality in % after 2 days obs. ([4]; 20 g/ha): 0%

Molecule: CC(c1ccc(C(F)(F)F)nc1)S(C)(=O)=NC#N (stereo not shown) [B-27.27, Sulfoxaflor]
- mortality at 0.8 g/ha [1, 5]: 0%
- mortality at 4 g/ha [1, 5]: 0%
- mortality at 4 g/ha [2, 8]: 33%
- mortality at 4 g/ha [4, 12]: 0%

Molecule: Spinetoram [B-5.1]
- Mortality in % after 6 days obs. ([2]; 0.16 g/ha): 0%
- Mortality in % after 6 days obs. ([2]; 0.8 g/ha): 0%
- Mortality in % after 6 days obs. ([2]; 4 g/ha): 0%
- Mortality in % after 2 days obs. ([3]; 0.032 g/ha): 0%
- Mortality in % after 2 days obs. ([3]; 0.8 g/ha): 83%
- Mortality in % after 2 days obs. ([4]; 0.8 g/ha): 30%
- Mortality in % after 6 days obs. [4, 15]: 70%
